This passage reports Km results from publication PMC3599355, “Discovery and characterization of a highly efficient enantioselective mandelonitrile hydrolase from Burkholderia cenocepacia J2315 by phylogeny-based enzymatic substrate specificity prediction” (BMC Biotechnology, 2013).

For the assay, the target named is T1, BCJ2315 (Burkholderia cenocepacia, UniProt B4E7T0).
T1 construct: gene BCAL2585; full-length gene in pQE30 (BamHI/HindIII), His-tag kept, E. coli M15; 37 kDa subunit, native about 450 kDa, 12 identical subunits
T1 sequence (B4E7T0 entry or part of it): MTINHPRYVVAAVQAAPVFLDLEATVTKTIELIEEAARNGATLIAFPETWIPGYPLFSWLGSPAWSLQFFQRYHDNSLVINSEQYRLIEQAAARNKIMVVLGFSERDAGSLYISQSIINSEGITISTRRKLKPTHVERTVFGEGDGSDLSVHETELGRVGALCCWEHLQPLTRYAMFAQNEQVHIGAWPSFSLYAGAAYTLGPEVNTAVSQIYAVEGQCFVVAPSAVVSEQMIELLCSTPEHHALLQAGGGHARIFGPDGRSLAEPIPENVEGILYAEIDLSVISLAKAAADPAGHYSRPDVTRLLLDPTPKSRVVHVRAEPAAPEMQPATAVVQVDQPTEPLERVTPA
Put plainly: HPLC hydrolysis assay, Lineweaver-Burk. The class given is biochemical. The note with it: standard assay: 100 mM sodium phosphate pH 7.0, 30 °C; mandelonitrile 0.1 to 15 mM; stereo form not stated.

The term Km denotes the concentration of substrate that gives half-maximal velocity. Turning to `N#CC(O)c1ccccc1` (stereo not shown) [mandelonitrile], the Km was determined as 140 µM.
